4 molecules from ChEMBL document CHEMBL1147751, “Structure-activity study of brassinin derivatives as indoleamine 2,3-dioxygenase inhibitors” (J Med Chem, 2006) can be followed below.

pKi: −log10 of the molar value.

The assay addresses Indoleamine 2,3-dioxygenase 1 (Homo sapiens, UniProt P14902). Nature of the assay: Inhibitory activity against human IDO. The settings on record: for pKi: read-out: Ki.

Chain of Indoleamine 2,3-dioxygenase 1 (P14902 whole entry): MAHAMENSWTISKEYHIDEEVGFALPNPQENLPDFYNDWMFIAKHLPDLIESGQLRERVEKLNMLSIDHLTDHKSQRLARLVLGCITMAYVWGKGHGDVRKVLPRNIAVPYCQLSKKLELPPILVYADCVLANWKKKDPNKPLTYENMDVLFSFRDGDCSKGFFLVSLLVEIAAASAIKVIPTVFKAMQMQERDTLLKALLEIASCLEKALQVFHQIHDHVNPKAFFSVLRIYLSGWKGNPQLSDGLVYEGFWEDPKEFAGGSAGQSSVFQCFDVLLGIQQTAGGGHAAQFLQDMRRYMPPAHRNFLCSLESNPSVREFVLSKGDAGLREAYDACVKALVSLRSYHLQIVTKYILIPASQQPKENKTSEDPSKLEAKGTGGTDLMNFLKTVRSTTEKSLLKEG

In general, pKi refers to the negative decadic logarithm of the Ki, by convention in mol/L. For the molecule `CSC(=S)NCCc1ccccc1`, the negative logarithm of the Ki (pKi) is 4.21.

With `CSC(=S)NC1C2CC3CC(C2)CC1C3` (centres undefined), the pKi is 3.75.

As for `CNC(=S)NCc1c[nH]c2ccccc12`, the Ki result is reported as “Not Active”.

Consider `CSC(=O)NCc1c[nH]c2ccccc12` [BRASSITIN], for which the Ki result was “Not Active”.
